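96-well plates; 48 h exposure; 5 concentrations. Endpoints by linear interpolation between flanking doses. Not reached: highest tested concentration assigned. GI50: concentration for 50% inhibition of growth. At the TGI there is no net growth.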
Columns and labels:
Test in all cases: NCI anticancer screen, dose series, 48 h
SF-539 CNS = tested on: SF-539 CNS
MOLT-4 leukemia = tested on: MOLT-4 leukemia
HCT-15 colon = tested on: HCT-15 colon
SNB-19 CNS = tested on: SNB-19 CNS
SW-620 colon = tested on: SW-620 colon
MALME-3M melanoma = tested on: MALME-3M melanoma
HOP-62 NSCLC = tested on: HOP-62 NSCLC
HCC-2998 colon = tested on: HCC-2998 colon
SK-MEL-5 melanoma = tested on: SK-MEL-5 melanoma
CAKI-1 renal = tested on: CAKI-1 renal
K-562 leukemia = tested on: K-562 leukemia
UO-31 renal = tested on: UO-31 renal
NCI-H460 lung = tested on: NCI-H460 lung
DU-145 prostate = tested on: DU-145 prostate
HS 578T breast = tested on: HS 578T breast
786-0 renal = tested on: 786-0 renal
NCI-H522 lung = tested on: NCI-H522 lung
SF-295 CNS = tested on: SF-295 CNS
NCI-H23 lung = tested on: NCI-H23 lung
HCT-116 colon = tested on: HCT-116 colon
SK-OV-3 ovarian = tested on: SK-OV-3 ovarian
OVCAR-5 ovarian = tested on: OVCAR-5 ovarian
LOX IMVI melanoma = tested on: LOX IMVI melanoma
MDA-MB-435 = tested on: MDA-MB-435
SK-MEL-2 melanoma = tested on: SK-MEL-2 melanoma
IGROV1 ovarian = tested on: IGROV1 ovarian
EKVX NSCLC = tested on: EKVX NSCLC
UACC-62 melanoma = tested on: UACC-62 melanoma
RPMI-8226 leukemia = tested on: RPMI-8226 leukemia
A549 NSCLC = tested on: A549 NSCLC
OVCAR-3 ovarian = tested on: OVCAR-3 ovarian
A498 renal = tested on: A498 renal
NCI/ADR-RES ovarian = tested on: NCI/ADR-RES ovarian
MDA-MB-231 breast = tested on: MDA-MB-231 breast
OVCAR-4 ovarian = tested on: OVCAR-4 ovarian
KM12 colon = tested on: KM12 colon
HL-60(TB) leukemia = tested on: HL-60(TB) leukemia
BT-549 breast = tested on: BT-549 breast
T-47D breast = tested on: T-47D breast
M14 melanoma = tested on: M14 melanoma
RXF 393 renal = tested on: RXF 393 renal
MCF7 breast = tested on: MCF7 breast
HOP-92 NSCLC = tested on: HOP-92 NSCLC
SF-268 CNS = tested on: SF-268 CNS
SN12C renal = tested on: SN12C renal
TK-10 renal = tested on: TK-10 renal
ACHN renal = tested on: ACHN renal
COLO 205 colon = tested on: COLO 205 colon
UACC-257 melanoma = tested on: UACC-257 melanoma
SNB-75 CNS = tested on: SNB-75 CNS
U251 CNS = tested on: U251 CNS
CCRF-CEM leukemia = tested on: CCRF-CEM leukemia
PC-3 prostate = tested on: PC-3 prostate
SR leukemia = tested on: SR leukemia
SK-MEL-28 melanoma = tested on: SK-MEL-28 melanoma
NCI-H226 lung = tested on: NCI-H226 lung
OVCAR-8 ovarian = tested on: OVCAR-8 ovarian
HT29 colon = tested on: HT29 colon

COc1ccc(C(=O)N/N=C/c2ccc(O)cc2O)cc1Nc1ccnc(C(F)(F)F)c1
GI50 (SF-539 CNS): 404 nM | TGI (SF-539 CNS): 7780 nM | GI50 (MOLT-4 leukemia): 357 nM | TGI (MOLT-4 leukemia): 2590 nM | GI50 (HCT-15 colon): 2450 nM | TGI (HCT-15 colon): > 100000 nM | GI50 (SNB-19 CNS): 816 nM | TGI (SNB-19 CNS): 56700 nM | GI50 (SW-620 colon): 1160 nM | TGI (SW-620 colon): 24200 nM | GI50 (MALME-3M melanoma): 891 nM | TGI (MALME-3M melanoma): > 26700 nM | GI50 (HOP-62 NSCLC): 495 nM | TGI (HOP-62 NSCLC): 12700 nM | GI50 (HCC-2998 colon): 513 nM | TGI (HCC-2998 colon): 22100 nM | GI50 (SK-MEL-5 melanoma): 534 nM | TGI (SK-MEL-5 melanoma): 5030 nM | GI50 (CAKI-1 renal): 984 nM | TGI (CAKI-1 renal): 15200 nM | GI50 (K-562 leukemia): 485 nM | TGI (K-562 leukemia): > 35600 nM | GI50 (UO-31 renal): 2640 nM | TGI (UO-31 renal): > 63800 nM | GI50 (NCI-H460 lung): 3140 nM | TGI (NCI-H460 lung): 12700 nM | GI50 (DU-145 prostate): 622 nM | TGI (DU-145 prostate): 15200 nM | GI50 (HS 578T breast): 1010 nM | TGI (HS 578T breast): 15300 nM | GI50 (786-0 renal): 998 nM | TGI (786-0 renal): 9620 nM | GI50 (NCI-H522 lung): 3220 nM | TGI (NCI-H522 lung): 27300 nM | GI50 (SF-295 CNS): 1070 nM | TGI (SF-295 CNS): 20600 nM | GI50 (NCI-H23 lung): 2390 nM | TGI (NCI-H23 lung): 20300 nM | GI50 (HCT-116 colon): 354 nM | TGI (HCT-116 colon): 8770 nM | GI50 (SK-OV-3 ovarian): 725 nM | TGI (SK-OV-3 ovarian): 18800 nM | GI50 (OVCAR-5 ovarian): 1160 nM | TGI (OVCAR-5 ovarian): 33000 nM | GI50 (LOX IMVI melanoma): 454 nM | TGI (LOX IMVI melanoma): 16400 nM | GI50 (MDA-MB-435): 507 nM | TGI (MDA-MB-435): 21100 nM | GI50 (SK-MEL-2 melanoma): 9230 nM | TGI (SK-MEL-2 melanoma): 30600 nM | GI50 (IGROV1 ovarian): 575 nM | TGI (IGROV1 ovarian): 23400 nM | GI50 (EKVX NSCLC): 482 nM | TGI (EKVX NSCLC): 27900 nM | GI50 (UACC-62 melanoma): 448 nM | TGI (UACC-62 melanoma): 11400 nM | GI50 (RPMI-8226 leukemia): 1160 nM | TGI (RPMI-8226 leukemia): 30800 nM | GI50 (A549 NSCLC): 5110 nM | TGI (A549 NSCLC): > 53900 nM | GI50 (OVCAR-3 ovarian): 317 nM | TGI (OVCAR-3 ovarian): 17800 nM | GI50 (A498 renal): 193 nM | TGI (A498 renal): 9330 nM | GI50 (NCI/ADR-RES ovarian): 11900 nM | TGI (NCI/ADR-RES ovarian): > 100000 nM | GI50 (MDA-MB-231 breast): 1710 nM | TGI (MDA-MB-231 breast): > 84700 nM | GI50 (OVCAR-4 ovarian): 270 nM | GI50 (KM12 colon): 1820 nM | TGI (KM12 colon): 13900 nM | GI50 (HL-60(TB) leukemia): 291 nM | TGI (HL-60(TB) leukemia): 923 nM | GI50 (BT-549 breast): 916 nM | TGI (BT-549 breast): 23800 nM | GI50 (T-47D breast): 688 nM | TGI (T-47D breast): 15000 nM | GI50 (M14 melanoma): 731 nM | TGI (M14 melanoma): 5550 nM | GI50 (RXF 393 renal): 3300 nM | TGI (RXF 393 renal): 15700 nM | GI50 (MCF7 breast): 1570 nM | TGI (MCF7 breast): 16500 nM | GI50 (HOP-92 NSCLC): 347 nM | TGI (HOP-92 NSCLC): 8430 nM | GI50 (SF-268 CNS): 299 nM | TGI (SF-268 CNS): 16700 nM | GI50 (SN12C renal): 1150 nM | TGI (SN12C renal): > 47000 nM | GI50 (TK-10 renal): 994 nM | TGI (TK-10 renal): 58600 nM | GI50 (ACHN renal): 1540 nM | TGI (ACHN renal): 35800 nM | GI50 (COLO 205 colon): 323 nM | TGI (COLO 205 colon): 14300 nM | GI50 (UACC-257 melanoma): 1690 nM | TGI (UACC-257 melanoma): 16900 nM | GI50 (SNB-75 CNS): 2220 nM | TGI (SNB-75 CNS): 49800 nM | GI50 (U251 CNS): 401 nM | TGI (U251 CNS): 29400 nM | GI50 (CCRF-CEM leukemia): 128 nM | TGI (CCRF-CEM leukemia): 1440 nM | GI50 (PC-3 prostate): 771 nM | TGI (PC-3 prostate): 24600 nM | GI50 (SR leukemia): 148 nM | TGI (SR leukemia): 452 nM | GI50 (SK-MEL-28 melanoma): 298 nM | TGI (SK-MEL-28 melanoma): 4980 nM | GI50 (NCI-H226 lung): 1390 nM | TGI (NCI-H226 lung): 11600 nM | GI50 (OVCAR-8 ovarian): 919 nM | TGI (OVCAR-8 ovarian): > 71200 nM | GI50 (HT29 colon): 3600 nM | TGI (HT29 colon): > 69200 nM
